Test system: 349418-098-R-PDC spheroids, viability, % test/control
Assay: Anticancer human tumor 349418-098-R-PDC patient-derived lung adenocarcinoma cell line growth inhibition [IpAb]
Conditions: spheroids with HUVEC and MSC; for IC50: curve of first compound; for viability, T/C: stronger effect = lower value; active = viability on the fitted dose curve at most 10% of control; inactive = the rest
Outline: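 Spheroids of 60% malignant cells, 25% HUVEC and 15% MSC were exposed to targeted agents combined with ipatasertib or abemaciclib. Doses started at or near clinical Cmax (10 microM when unknown) and fell in half-log steps.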
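Note: spheroids exposed to compounds for 7 days.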

CC(=O)c1c(C)c2cnc(Nc3ccc(N4CCNCC4)cn3)nc2n(C2CCCC2)c1=O + CCN1CCN(Cc2ccc(Nc3ncc(F)c(-c4cc(F)c5nc(C)n(C(C)C)c5c4)n3)nc2)CC1
inactive: viability, T/C (second compound 0.01 µM, first compound 0.000949 µM) 58.4% | viability, T/C (second compound 0.01 µM, first compound 0.003 µM) 64.5% | viability, T/C (second compound 0.01 µM, first compound 0.00949 µM) 40.4% | viability, T/C (second compound 0.01 µM, first compound 0.03 µM) 35.1% | viability, T/C (second compound 0.01 µM, first compound 0.0949 µM) 19.1% | viability, T/C (second compound 0.01 µM, first compound 0.3 µM) 15.8% | viability, T/C (second compound 0.0316 µM, first compound 0.000949 µM) 40.7% | viability, T/C (second compound 0.0316 µM, first compound 0.003 µM) 38.7% | viability, T/C (second compound 0.0316 µM, first compound 0.00949 µM) 28.5% | viability, T/C (second compound 0.0316 µM, first compound 0.03 µM) 23.6% | viability, T/C (second compound 0.0316 µM, first compound 0.0949 µM) 15.1% | viability, T/C (second compound 0.0316 µM, first compound 0.3 µM) 15.6% | viability, T/C (second compound 0.1 µM, first compound 0.000949 µM) 24.8% | viability, T/C (second compound 0.1 µM, first compound 0.003 µM) 24.8% | viability, T/C (second compound 0.1 µM, first compound 0.00949 µM) 20.7% | viability, T/C (second compound 0.1 µM, first compound 0.03 µM) 19.5% | viability, T/C (second compound 0.1 µM, first compound 0.0949 µM) 16.1% | viability, T/C (second compound 0.1 µM, first compound 0.3 µM) 14.6% | viability, T/C (second compound 0.316 µM, first compound 0.000949 µM) 16.8% | viability, T/C (second compound 0.316 µM, first compound 0.003 µM) 19.6% | viability, T/C (second compound 0.316 µM, first compound 0.00949 µM) 19% | viability, T/C (second compound 0.316 µM, first compound 0.03 µM) 16% | viability, T/C (second compound 0.316 µM, first compound 0.0949 µM) 13.8% | viability, T/C (second compound 0.316 µM, first compound 0.3 µM) 14.4% | viability, T/C (second compound 1 µM, first compound 0.000949 µM) 13.4% | viability, T/C (second compound 1 µM, first compound 0.003 µM) 17.6% | viability, T/C (second compound 1 µM, first compound 0.00949 µM) 15.1% | viability, T/C (second compound 1 µM, first compound 0.03 µM) 15% | viability, T/C (second compound 1 µM, first compound 0.0949 µM) 14.9% | viability, T/C (second compound 1 µM, first compound 0.3 µM) 13.9%
6560 pM: IC50 (second compound 0.01 µM)
< 949 pM: IC50 (second compound 0.0316 µM) | IC50 (second compound 0.1 µM) | IC50 (second compound 0.316 µM) | IC50 (second compound 1 µM)

From PubChem BioAssay AID2060340 (Molecular Pharmacology Branch, DTP, NCI, 2025)
